Laboratory results reported in ChEMBL document CHEMBL3991601, “The target landscape of clinical kinase drugs” (Science, 2017).
Activity calls are given as the source filed them. Rule as the data show it, for most assays here: actives have a measured Kd and inactives only a lower limit.

Columns and labels:
[1] = molecular target: T1, Peroxisomal acyl-coenzyme A oxidase 3 (Homo sapiens, UniProt O15254)
T1 sequence (O15254 whole entry): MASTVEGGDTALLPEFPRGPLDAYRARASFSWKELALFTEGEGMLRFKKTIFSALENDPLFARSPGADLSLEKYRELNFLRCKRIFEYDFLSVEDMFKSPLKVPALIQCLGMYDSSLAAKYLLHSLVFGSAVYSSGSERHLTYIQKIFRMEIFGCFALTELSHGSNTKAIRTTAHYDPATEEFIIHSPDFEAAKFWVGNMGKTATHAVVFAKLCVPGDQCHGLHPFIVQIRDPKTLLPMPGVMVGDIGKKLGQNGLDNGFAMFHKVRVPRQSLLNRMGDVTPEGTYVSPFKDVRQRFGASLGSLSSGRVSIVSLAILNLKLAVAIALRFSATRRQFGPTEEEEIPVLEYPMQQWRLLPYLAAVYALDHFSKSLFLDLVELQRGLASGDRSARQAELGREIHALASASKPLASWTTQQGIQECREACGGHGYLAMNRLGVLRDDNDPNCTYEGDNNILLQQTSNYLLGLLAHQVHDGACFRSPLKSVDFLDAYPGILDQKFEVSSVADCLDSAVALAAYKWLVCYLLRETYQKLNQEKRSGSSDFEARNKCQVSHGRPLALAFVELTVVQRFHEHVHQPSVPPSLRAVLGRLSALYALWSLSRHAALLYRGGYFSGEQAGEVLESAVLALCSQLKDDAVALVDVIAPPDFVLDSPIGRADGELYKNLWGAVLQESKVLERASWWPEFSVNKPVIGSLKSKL

[2] = molecular target: Cyclin-dependent kinase 12 (Homo sapiens, UniProt Q9NYV4)
Cyclin-dependent kinase 12, sequence (Q9NYV4 whole entry): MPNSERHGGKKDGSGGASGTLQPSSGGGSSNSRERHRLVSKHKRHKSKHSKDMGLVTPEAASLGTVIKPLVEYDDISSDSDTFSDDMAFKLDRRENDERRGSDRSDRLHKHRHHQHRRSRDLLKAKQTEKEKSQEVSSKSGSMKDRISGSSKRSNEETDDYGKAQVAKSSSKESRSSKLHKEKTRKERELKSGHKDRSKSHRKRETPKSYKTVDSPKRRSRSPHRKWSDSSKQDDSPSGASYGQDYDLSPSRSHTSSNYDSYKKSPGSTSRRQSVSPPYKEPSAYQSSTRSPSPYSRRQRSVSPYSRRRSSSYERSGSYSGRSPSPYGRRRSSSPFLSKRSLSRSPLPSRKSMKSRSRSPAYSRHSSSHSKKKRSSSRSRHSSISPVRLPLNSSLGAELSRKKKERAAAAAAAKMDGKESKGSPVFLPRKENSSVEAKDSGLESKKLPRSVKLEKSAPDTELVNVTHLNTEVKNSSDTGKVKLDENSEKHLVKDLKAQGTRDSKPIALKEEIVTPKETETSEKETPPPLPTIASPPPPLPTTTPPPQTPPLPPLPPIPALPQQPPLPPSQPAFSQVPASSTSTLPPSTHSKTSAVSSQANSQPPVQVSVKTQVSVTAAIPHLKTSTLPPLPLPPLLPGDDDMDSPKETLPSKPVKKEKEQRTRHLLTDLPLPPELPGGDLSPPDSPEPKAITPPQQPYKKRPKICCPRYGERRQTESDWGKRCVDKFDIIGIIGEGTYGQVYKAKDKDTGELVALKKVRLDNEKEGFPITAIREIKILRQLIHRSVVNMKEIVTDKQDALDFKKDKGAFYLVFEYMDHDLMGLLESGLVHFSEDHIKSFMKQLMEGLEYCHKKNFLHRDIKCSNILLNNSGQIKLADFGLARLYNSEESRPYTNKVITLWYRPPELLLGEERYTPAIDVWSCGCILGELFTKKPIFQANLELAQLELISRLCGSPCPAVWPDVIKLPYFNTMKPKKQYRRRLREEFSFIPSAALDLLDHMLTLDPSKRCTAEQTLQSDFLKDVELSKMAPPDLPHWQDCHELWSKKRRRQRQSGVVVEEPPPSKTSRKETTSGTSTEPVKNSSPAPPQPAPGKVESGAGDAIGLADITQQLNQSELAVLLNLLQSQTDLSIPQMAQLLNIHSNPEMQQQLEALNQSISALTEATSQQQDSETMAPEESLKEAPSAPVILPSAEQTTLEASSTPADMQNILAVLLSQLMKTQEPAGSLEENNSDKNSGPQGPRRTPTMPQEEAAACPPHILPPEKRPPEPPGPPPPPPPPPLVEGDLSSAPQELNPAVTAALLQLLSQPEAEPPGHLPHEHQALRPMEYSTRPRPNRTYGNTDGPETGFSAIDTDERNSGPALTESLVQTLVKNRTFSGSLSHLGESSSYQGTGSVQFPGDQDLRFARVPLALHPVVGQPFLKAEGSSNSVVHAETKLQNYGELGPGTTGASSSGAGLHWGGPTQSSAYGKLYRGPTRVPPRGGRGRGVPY

[3] = molecular target: Chromodomain-helicase-DNA-binding protein 4 (Homo sapiens, UniProt Q14839)
Ephrin type-A receptor 2 = Ephrin type-A receptor 2 (Homo sapiens, UniProt P29317)
Ephrin type-A receptor 2, sequence (P29317 whole entry): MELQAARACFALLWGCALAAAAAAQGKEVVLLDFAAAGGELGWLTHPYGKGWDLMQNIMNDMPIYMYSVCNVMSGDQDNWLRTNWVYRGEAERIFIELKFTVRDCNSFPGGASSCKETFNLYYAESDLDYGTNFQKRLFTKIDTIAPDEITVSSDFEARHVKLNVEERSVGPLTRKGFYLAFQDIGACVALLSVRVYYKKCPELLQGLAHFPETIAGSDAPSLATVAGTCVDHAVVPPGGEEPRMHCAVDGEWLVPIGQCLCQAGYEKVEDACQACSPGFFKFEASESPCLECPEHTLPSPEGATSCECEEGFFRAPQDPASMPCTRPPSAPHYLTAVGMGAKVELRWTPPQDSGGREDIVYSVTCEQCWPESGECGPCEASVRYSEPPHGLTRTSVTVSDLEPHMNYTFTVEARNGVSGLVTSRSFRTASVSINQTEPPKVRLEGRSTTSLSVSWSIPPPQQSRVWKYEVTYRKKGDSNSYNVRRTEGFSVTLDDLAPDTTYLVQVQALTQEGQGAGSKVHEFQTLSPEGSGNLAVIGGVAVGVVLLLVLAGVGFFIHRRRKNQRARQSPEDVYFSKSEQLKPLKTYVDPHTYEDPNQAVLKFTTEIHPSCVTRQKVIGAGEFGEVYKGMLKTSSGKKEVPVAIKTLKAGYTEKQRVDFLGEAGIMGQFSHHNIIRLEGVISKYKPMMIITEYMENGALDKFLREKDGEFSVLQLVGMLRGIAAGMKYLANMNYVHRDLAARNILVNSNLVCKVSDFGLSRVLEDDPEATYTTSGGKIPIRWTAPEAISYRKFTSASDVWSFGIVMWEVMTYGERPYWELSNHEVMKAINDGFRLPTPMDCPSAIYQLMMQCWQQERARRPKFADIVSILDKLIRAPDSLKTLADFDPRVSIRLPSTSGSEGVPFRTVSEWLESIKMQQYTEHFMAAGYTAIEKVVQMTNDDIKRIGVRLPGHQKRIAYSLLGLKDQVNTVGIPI

[4] = molecular target: Fibroblast growth factor receptor 1 (Homo sapiens, UniProt P11362)
[5] = molecular target: Tyrosine-protein kinase FRK (Homo sapiens, UniProt P42685)
Tyrosine-protein kinase FRK, sequence (P42685 whole entry, the tested form may be a part): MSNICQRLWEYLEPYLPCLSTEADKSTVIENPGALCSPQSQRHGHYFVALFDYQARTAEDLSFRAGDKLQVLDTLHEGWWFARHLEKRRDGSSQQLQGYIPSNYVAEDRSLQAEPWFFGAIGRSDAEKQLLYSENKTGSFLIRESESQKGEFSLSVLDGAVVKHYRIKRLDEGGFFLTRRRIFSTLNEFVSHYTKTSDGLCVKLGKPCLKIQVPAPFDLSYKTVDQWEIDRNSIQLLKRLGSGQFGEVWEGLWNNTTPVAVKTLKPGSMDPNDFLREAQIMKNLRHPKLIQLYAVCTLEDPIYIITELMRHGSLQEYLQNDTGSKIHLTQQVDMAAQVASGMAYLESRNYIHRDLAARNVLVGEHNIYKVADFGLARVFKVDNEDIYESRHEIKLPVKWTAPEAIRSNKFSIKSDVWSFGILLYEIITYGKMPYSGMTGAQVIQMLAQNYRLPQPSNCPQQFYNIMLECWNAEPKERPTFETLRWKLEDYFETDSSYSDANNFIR

LIM domain kinase 2 = LIM domain kinase 2 (Homo sapiens, UniProt P53671)
LIM domain kinase 2, sequence (P53671 whole entry, the tested form may be a part): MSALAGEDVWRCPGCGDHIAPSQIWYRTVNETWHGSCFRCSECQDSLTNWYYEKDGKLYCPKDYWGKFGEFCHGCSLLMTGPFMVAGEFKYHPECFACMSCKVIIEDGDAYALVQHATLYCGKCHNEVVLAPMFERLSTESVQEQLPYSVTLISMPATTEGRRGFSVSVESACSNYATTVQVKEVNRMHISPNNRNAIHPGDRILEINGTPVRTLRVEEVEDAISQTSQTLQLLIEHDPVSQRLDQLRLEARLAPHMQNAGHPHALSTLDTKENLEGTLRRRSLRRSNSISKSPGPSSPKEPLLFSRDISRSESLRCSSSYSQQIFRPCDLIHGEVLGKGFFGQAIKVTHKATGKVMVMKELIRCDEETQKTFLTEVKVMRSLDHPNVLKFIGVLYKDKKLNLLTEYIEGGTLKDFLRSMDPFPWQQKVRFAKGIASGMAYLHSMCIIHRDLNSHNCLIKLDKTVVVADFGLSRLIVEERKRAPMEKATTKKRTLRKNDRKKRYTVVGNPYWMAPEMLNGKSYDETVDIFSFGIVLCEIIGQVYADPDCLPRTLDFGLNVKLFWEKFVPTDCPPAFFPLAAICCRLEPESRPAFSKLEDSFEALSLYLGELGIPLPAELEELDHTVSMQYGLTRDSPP

[6] = molecular target: Mitogen-activated protein kinase kinase kinase kinase 1 (Homo sapiens, UniProt Q92918)
Mitogen-activated protein kinase kinase kinase kinase 1, sequence (Q92918 whole entry): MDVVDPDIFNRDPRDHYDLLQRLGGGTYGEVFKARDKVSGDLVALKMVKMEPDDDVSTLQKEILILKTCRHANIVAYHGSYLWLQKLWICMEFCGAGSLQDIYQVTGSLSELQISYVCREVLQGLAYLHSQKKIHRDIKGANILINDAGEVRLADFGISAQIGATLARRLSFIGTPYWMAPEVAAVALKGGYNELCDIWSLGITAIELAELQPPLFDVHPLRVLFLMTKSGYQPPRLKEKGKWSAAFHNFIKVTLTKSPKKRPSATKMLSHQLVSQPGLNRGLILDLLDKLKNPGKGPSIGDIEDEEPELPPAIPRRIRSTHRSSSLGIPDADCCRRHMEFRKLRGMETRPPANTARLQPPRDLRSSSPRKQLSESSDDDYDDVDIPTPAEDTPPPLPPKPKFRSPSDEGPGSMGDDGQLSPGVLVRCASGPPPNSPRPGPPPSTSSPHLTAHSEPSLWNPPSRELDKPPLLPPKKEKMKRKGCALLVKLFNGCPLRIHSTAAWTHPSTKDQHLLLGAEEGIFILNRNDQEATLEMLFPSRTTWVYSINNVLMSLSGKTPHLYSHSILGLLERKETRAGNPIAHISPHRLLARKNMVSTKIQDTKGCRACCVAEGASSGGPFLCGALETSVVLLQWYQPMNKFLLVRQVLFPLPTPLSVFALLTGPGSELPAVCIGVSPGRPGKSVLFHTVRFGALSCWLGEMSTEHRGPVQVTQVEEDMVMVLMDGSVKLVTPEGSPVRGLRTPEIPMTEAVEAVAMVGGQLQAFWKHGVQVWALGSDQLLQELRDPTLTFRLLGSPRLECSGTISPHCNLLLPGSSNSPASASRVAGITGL

Midasin = Midasin (Homo sapiens, UniProt Q9NU22)
[7] = molecular target: T2, Membrane-associated tyrosine- and threonine-specific cdc2-inhibitory kinase (Homo sapiens, UniProt Q99640)
T2 sequence (Q99640 whole entry): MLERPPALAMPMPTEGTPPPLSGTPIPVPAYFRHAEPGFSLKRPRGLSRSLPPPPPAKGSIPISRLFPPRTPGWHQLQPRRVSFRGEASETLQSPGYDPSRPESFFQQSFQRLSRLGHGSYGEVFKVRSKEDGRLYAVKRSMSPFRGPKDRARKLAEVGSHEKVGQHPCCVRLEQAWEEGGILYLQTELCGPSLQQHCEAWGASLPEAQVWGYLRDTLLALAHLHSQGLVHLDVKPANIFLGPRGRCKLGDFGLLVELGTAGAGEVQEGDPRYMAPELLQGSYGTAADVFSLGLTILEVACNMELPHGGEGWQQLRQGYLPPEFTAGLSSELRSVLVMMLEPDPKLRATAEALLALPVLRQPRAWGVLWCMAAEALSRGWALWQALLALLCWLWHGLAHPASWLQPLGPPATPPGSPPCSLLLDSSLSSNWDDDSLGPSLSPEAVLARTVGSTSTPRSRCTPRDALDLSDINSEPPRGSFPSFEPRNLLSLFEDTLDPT

[8] = molecular target: T3, Glycogen phosphorylase, brain form (Homo sapiens, UniProt P11216)
T3 sequence (P11216 whole entry): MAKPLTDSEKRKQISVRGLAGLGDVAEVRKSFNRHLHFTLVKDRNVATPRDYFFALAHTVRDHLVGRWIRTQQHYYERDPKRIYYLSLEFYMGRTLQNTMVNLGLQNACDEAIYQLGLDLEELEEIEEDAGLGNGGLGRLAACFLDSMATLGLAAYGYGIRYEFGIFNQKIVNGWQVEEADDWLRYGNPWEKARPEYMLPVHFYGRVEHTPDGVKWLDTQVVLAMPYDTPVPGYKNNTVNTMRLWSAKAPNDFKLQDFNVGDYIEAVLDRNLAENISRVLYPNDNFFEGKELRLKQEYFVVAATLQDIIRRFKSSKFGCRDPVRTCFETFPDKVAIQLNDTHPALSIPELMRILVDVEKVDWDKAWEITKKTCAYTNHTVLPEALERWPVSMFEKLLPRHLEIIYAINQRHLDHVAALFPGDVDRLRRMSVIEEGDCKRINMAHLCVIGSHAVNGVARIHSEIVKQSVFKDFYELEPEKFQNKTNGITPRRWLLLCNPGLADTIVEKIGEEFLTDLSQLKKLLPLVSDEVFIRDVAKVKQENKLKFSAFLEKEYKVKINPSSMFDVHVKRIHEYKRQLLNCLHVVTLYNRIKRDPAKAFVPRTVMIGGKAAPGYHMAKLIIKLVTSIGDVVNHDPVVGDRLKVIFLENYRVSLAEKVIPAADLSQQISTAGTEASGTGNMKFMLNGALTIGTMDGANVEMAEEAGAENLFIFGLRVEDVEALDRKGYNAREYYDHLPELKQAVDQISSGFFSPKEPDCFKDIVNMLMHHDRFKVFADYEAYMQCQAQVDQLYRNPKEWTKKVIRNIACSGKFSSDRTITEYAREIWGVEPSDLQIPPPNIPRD

[9] = molecular target: Serine/threonine-protein kinase 26 (Homo sapiens, UniProt Q9P289)
Serine/threonine-protein kinase 26, sequence (Q9P289 whole entry): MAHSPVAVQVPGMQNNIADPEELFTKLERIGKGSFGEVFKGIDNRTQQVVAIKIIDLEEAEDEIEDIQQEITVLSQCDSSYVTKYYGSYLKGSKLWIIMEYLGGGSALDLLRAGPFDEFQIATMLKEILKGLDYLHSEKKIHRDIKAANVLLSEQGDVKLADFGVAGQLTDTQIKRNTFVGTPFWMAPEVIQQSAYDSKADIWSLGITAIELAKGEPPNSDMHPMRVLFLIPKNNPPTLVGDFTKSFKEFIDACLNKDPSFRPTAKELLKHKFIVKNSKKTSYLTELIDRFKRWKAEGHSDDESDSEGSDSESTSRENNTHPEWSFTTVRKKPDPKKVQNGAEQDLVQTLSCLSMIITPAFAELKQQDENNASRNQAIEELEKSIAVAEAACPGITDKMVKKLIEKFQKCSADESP

[10] = molecular target: Non-receptor tyrosine-protein kinase TYK2 (Homo sapiens, UniProt P29597)
Also: in the data inactive means no Kd found up to 30 µM.

Row | Structure (SMILES) | Kd [1] | Kd [2] | Kd [3] | Kd (Ephrin type-A receptor 2) | Kd [4] | Kd [5] | Kd (LIM domain kinase 2) | Kd [6] | Kd (Midasin) | Kd [7] | Kd [8] | Kd [9] | Kd [10]
1 | CN1CCN(c2nc(C3=C(c4c[nH]c5ccccc45)C(=O)NC3=O)c3ccccc3n2)CC1 [SOTRASTAURIN] | > 30 µM (inactive) | > 30 µM (inactive) | > 30 µM (inactive) | > 30 µM (inactive) | > 30 µM (inactive) | > 30 µM (inactive) | > 30 µM (inactive) | > 30 µM (inactive) | > 30 µM (inactive) | > 30 µM (inactive) | > 30 µM (inactive) | > 30 µM (inactive) | > 30 µM (inactive)
2 | O[C@H]1CC[C@H](Nc2ncc3nc(Nc4c(F)cc(F)cc4F)n([C@H]4CCOC4)c3n2)CC1 [TANZISERTIB] | > 30 µM (inactive) | > 30 µM (inactive) | > 30 µM (inactive) | > 30 µM (inactive) | > 30 µM (inactive) | > 30 µM (inactive) | 1.84 µM (active) | > 30 µM (inactive) | > 30 µM (inactive) | > 30 µM (inactive) | > 30 µM (inactive) | > 30 µM (inactive) | > 30 µM (inactive)
3 | C[C@@H]1COC(Nc2ccc3ncnc(Nc4ccc(OCc5nccs5)c(Cl)c4)c3c2)=N1 [VARLITINIB] | > 30 µM (inactive) | > 30 µM (inactive) | > 30 µM (inactive) | > 30 µM (inactive) | > 30 µM (inactive) | > 30 µM (inactive) | > 30 µM (inactive) | > 30 µM (inactive) | > 30 µM (inactive) | > 30 µM (inactive) | > 30 µM (inactive) | > 30 µM (inactive) | > 30 µM (inactive)
4 | CNC(=O)c1cccc(-c2ccc3c(N4CCOC[C@@H]4C)nc(N4CCOC[C@@H]4C)nc3n2)c1 [VISTUSERTIB] | > 30 µM (inactive) | > 30 µM (inactive) | > 30 µM (inactive) | > 30 µM (inactive) | > 30 µM (inactive) | > 30 µM (inactive) | > 30 µM (inactive) | > 30 µM (inactive) | > 30 µM (inactive) | > 30 µM (inactive) | > 30 µM (inactive) | > 30 µM (inactive) | > 30 µM (inactive)
5 | COc1cc2ncnc(Nc3ccc(O)cc3)c2cc1OC [WHI-P131] | > 30 µM (inactive) | > 30 µM (inactive) | > 30 µM (inactive) | > 30 µM (inactive) | > 30 µM (inactive) | > 30 µM (inactive) | > 30 µM (inactive) | > 30 µM (inactive) | > 30 µM (inactive) | > 30 µM (inactive) | > 30 µM (inactive) | > 30 µM (inactive) | > 30 µM (inactive)

Continued, values first:

Row | Kd [1] | Kd [2] | Kd [3] | Kd (Ephrin type-A receptor 2) | Kd [4] | Kd [5] | Kd (LIM domain kinase 2) | Kd [6] | Kd (Midasin) | Kd [7] | Kd [8] | Kd [9] | Kd [10] | Structure (SMILES)
6 | > 30 µM (inactive) | > 30 µM (inactive) | > 30 µM (inactive) | > 30 µM (inactive) | > 30 µM (inactive) | > 30 µM (inactive) | > 30 µM (inactive) | > 30 µM (inactive) | > 30 µM (inactive) | > 30 µM (inactive) | > 30 µM (inactive) | > 30 µM (inactive) | > 30 µM (inactive) | CC(C)(O)CC(=O)NCCn1ccc2ncnc(Nc3ccc(Oc4cccc(C(F)(F)F)c4)c(Cl)c3)c21 [TAK-285]
7 | > 30 µM (inactive) | > 30 µM (inactive) | > 30 µM (inactive) | > 30 µM (inactive) | > 30 µM (inactive) | > 30 µM (inactive) | > 30 µM (inactive) | > 30 µM (inactive) | > 30 µM (inactive) | > 30 µM (inactive) | > 30 µM (inactive) | > 30 µM (inactive) | > 30 µM (inactive) | Cc1cc(C(=O)Nc2cc(Oc3ccc4nc(NC(=O)C5CC5)cn4n3)ccc2C)n(C)n1 [TAK-593]
8 | > 30 µM (inactive) | > 30 µM (inactive) | > 30 µM (inactive) | > 30 µM (inactive) | > 30 µM (inactive) | > 30 µM (inactive) | > 30 µM (inactive) | > 30 µM (inactive) | > 30 µM (inactive) | > 30 µM (inactive) | > 30 µM (inactive) | > 30 µM (inactive) | > 30 µM (inactive) | Cn1c(=O)c(F)c(Nc2ccc(I)cc2F)c2c(=O)n(C[C@@H](O)CO)cnc21 [TAK-733]
